Where two headings read alike, the source gives them in different places.
How the values were obtained:
EG7 cells = test: EG7 subcutaneous tumor model in C57BL/6 mice, tumor volume; type: in vivo, mouse
Description: EG7 cells were implanted subcutaneously into C57BL/6 mice. Compound 9 (50 mg/kg) or vehicle was orally administered BID starting day one post implant (N=10 per group). Tumors were excised on day 14 and analyzed by flow cytometry. Compound 9 increased the % CD8+ cells of CD45+ cells as shown in FIG. 1A (* indicates p<0.05). EG7 cells were implanted subcutaneously into C57BL/6 mice. Anti-CD8 antibody was dosed i.p. on days −1, 0, 5, and 10. Compound 9 (50 mg/kg) or vehicle was orally dosed BID starting on day 1.
(§1) Compounds of the invention show potent anti-tumor effects, evidenced in reducing tumor volume in a mouse model. In one model, EG7 cells were implanted subcutaneously into C57BL/6 mice. Compound 9 or vehicle was orally administered BID starting day one post implant (N=10 per group). […] In another model, EG7 cells were implanted subcutaneously into C57BL/6 mice. Compound 9 was orally administered BID (100 mg/kg) starting day one post implant (N=10 per group). Vehicle was orally administered BID starting day one post implant (N=20) until day five post implant, at which time, mice were randomized by tumor volume into two groups. Compound 9 (100 mg/kg) or vehicle was orally administered BID to N=10 per group starting day six post implant. […] FIGS. 13B-D show individual replications of this measurement for each dosing. FIG. 13B is vehicle. FIG. 13C is dosing of Compound 9 started on day 1. FIG. 13D is Compound 9 started on day 6. In another model, CT26 cells were implanted subcutaneously into Balb/c mice. 100 mg/kg Compound 9 or vehicle was orally administered BID starting day one post implant (N=10 per group).
EG7 cells were implanted subcutaneously into C57BL/6 mice for each experiment. Anti-PD-L1 antibody (5 mg/kg) was dosed i.p. on Study Days 3, 5, 7, 9, 11, 13. Compound 9 (100 mg/kg) or vehicle was orally administered BID starting one day post implant. […] FIGS. 7B-7E show the individual replications of this measurement for each dosing. FIG. 7B is vehicle, FIG. 7C is anti-PD-L1 antibody, FIG. 7D is Compound 9, and FIG. 7E is Compound 9+ Anti-PD-L1.
Oxaliplatin was dosed i.p. 6 mg/kg on Study Days 7 and 14. Compound 9 (100 mg/kg) or vehicle was orally administered BID starting one day post implant. […] FIGS. 8B-8E show the individual replications of this measurement for each dosing. FIG. 8B is vehicle, FIG. 8C is oxaliplatin, FIG. 8D is Compound 9, and FIG. 8E is Compound 9+oxaliplatin.
Doxorubicin was dosed i.v. 2.5 mg/kg on Study Days 7 and 14. Compound 9 (50 mg/kg) or vehicle was orally administered BID starting one day post implant. […] FIGS. 9B-9E show the individual replications of this measurement for each dosing. FIG. 9B is vehicle, FIG. 9C is doxorubicin, FIG. 9D is Compound 9, and FIG. 9E is Compound 9+doxorubicin.
Docetaxel was dosed i.p. 5 mg/kg on Study Days 5, 12, and 19. Compound 9 (100 mg/kg) or vehicle was orally administered BID starting one day post implant. […] show the individual replications of this measurement for each dosing. FIG. 12B is vehicle, FIG. 12C is docetaxel, FIG. 12D is Compound 9, and FIG. 12E is Compound 9+docetaxel.

human plasma CD73 = human plasma CD73 (Homo sapiens (Human), UniProt P21589); test: Inhibition of CD73 in human plasma, LC/MS conversion of 15N5-AMP into 15N5-ADO; type: biochemical
Description: (§2) The potency of Compound 9 was evaluated against recombinant CD73 and CD73-expressing SK-MEL-28 cells using a malachite green assay. Inhibition of CD73 in plasma was measured using LC/MS to assess conversion of ^15N5-AMP into ^15N5-ADO. FIG. 4A indicates the nanomolar inhibition of CD73 cells from both human and mouse sources. […] Inhibition of CD73 in plasma was measured using LC/MS to assess conversion of ^15N5-AMP into ^15N5-ADO.

[1] = target: CD73-expressing SK-MEL-28 cells (Homo sapiens (Human), UniProt P21589); test: Human CD73 cell surface assay, CD73-expressing SK-MEL-28 cells, malachite green; type: cell-based
Description: as §2

[2] = tested on: Eurofins Safety Screen Panel (87 targets); test: Eurofins Safety Screen Panel; settings: 10 μM
Description: (§3) Using Compound 9, the activity of cell surface CD39 was assessed using K562 cells expressing human CD39 and Kinase-Glo. Activity of recombinant human ENTPD2 and ENTPD3 was assessed using a malachite green assay. […] Compound 9 was screened in the Eurofins Safety Screen Panel and the Eurofins Express Diversity Kinase Profile Panel. In the Safety Panel, 1/87 targets were inhibited at >50% at 10 μM of Compound 9. The PDE3 enzyme was inhibited at 59%.

mouse plasma CD73 = mouse plasma CD73 (Mus musculus (Mouse), UniProt Q61503); test: Inhibition of CD73 in mouse plasma (IC50); type: biochemical
Description: as §2
Single dose Compound 9 (50 mg/kg) was administered orally to mice and plasma was collected at indicated time points. Compound 9 levels were measured by LC/MS. Plasma was harvested from mice 2 hours post dose and spiked with ^15N5-AMP and a TNAP inhibitor. ^15N5-ADO levels were measured by LC/MS.

Human CD8+ T cells = test: Reversal of AMP-mediated suppression of CD8+ T cells; type: cell-based; settings: T-cell, 96 h, 4 days
Description: Human CD8+ T cells were labeled with CellTrace CFSE and then pre-incubated with an adenosine deaminase inhibitor and Compound 9 or vehicle for 20 minutes. 20 μM AMP was added for assessing T cell proliferation and CD25 expression. 10 μM AMP was added for assessing cytokine production. T cells were activated with α-CD3, α-CD28, and hIL2. After 4 days, proliferation and CD25 expression were assessed by flow cytometry and cytokine levels in the supernatant were measured by ELISA. EC50s were determined using a four-parameter dose-response curve equation.

human CD39 = human CD39 (Homo sapiens (Human), UniProt P49961); test: Cell surface CD39 activity, K562 cells expressing human CD39, Kinase-Glo; type: cell-based
Description: as §3

CT26 cells = test: CT26 subcutaneous tumor model in Balb/c mice, tumor volume; type: in vivo, mouse; settings: 100 mg/kg orally BID from day one post implant
Description: as §1

recombinant CD73 = recombinant CD73 (Homo sapiens (Human), UniProt P21589); test: Potency against recombinant CD73, malachite green assay; type: biochemical
Description: as §2

human CD39, sequence (P49961 whole entry): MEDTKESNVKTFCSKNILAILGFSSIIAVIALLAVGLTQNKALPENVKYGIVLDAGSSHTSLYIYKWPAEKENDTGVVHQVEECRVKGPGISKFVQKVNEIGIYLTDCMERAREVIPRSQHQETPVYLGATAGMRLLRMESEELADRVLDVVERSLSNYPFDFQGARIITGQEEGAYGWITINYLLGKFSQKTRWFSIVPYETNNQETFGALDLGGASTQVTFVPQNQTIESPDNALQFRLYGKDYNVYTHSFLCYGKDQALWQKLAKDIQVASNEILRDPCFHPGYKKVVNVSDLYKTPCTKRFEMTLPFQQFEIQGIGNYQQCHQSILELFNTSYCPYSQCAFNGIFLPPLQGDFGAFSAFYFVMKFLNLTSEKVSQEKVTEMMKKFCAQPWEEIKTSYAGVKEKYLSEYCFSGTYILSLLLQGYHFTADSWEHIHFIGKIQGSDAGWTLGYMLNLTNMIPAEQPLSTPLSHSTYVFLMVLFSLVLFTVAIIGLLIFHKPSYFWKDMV
human plasma CD73, sequence (P21589 27-574): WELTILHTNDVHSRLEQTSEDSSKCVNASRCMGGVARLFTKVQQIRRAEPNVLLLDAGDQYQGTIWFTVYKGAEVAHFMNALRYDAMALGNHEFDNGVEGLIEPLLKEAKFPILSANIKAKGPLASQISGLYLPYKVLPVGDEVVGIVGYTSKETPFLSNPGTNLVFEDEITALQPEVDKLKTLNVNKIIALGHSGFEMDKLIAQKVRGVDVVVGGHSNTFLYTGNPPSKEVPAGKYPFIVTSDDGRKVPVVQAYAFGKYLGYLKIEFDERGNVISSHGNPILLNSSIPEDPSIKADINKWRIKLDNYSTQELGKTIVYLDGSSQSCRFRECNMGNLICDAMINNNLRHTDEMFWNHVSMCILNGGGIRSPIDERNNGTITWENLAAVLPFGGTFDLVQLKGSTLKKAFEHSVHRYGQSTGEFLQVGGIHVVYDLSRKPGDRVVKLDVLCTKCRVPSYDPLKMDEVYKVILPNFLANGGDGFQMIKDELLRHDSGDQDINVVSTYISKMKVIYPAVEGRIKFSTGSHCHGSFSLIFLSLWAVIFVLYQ
recombinant CD73, sequence (P21589 27-574): as above
CD73-expressing SK-MEL-28 cells, sequence (P21589 27-574): as above
mouse plasma CD73, sequence (Q61503 29-576): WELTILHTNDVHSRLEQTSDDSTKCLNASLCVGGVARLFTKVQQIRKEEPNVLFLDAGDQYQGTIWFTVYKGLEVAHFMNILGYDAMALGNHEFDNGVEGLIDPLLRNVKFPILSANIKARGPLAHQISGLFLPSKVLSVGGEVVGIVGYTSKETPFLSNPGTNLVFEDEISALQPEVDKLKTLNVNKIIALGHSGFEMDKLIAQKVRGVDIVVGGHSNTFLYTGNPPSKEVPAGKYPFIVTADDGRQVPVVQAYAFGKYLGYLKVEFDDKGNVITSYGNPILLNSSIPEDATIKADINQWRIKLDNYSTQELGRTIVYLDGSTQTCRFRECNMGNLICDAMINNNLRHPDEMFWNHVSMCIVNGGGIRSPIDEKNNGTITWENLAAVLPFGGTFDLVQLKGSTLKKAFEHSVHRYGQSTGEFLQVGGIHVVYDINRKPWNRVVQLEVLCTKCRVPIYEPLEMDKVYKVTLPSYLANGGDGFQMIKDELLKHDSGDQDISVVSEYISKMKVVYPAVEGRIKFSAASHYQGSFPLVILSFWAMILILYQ

In the case of C#C[C@@]1(O)[C@@H](COC(Cc2ccc(N3CCCNC3=O)cc2)(C(=O)O)C(=O)O)O[C@@H](n2cnc3c(N)nc(Cl)nc32)[C@@H]1O [Compound 9, 2-(((2R,3S,4R,5R)-5-(6-amino-2-chloro-9H-purin-9-yl)-3-ethynyl-3,4-dihydroxytetrahydrofuran-2-yl)methoxy)-2-(4-(2-oxotetrahydropyrimidin-1 (2H)-yl)benzyl)malonic acid], the “tumor volume reduction, with or without CD8+ T cell depletion” value (EG7 cells; 50 mg/kg orally BID from day 1, anti-CD8 antibody i.p. days -1, 0, 5, 10) is reported as “more of a tumor volume reduction”, the “tumor volume, established EG7 tumors” value (EG7 cells; 100 mg/kg orally BID starting day six post implant) is reported as “decrease in tumor volume” and the “tumor volume, EG7, single agent and combination with doxorubicin” value (EG7 cells; Compound 9 50 mg/kg orally BID, doxorubicin i.v. 2.5 mg/kg days 7 and 14) is reported as “reduction in tumor volume”. The “tumor volume, EG7, single agent and combination with anti-PD-L1 antibody” value (EG7 cells; Compound 9 100 mg/kg orally BID, anti-PD-L1 5 mg/kg i.p. days 3, 5, 7, 9, 11, 13) was “reduction in tumor volume”, the “tumor volume, EG7, single agent and combination with docetaxel” value (EG7 cells; Compound 9 100 mg/kg orally BID, docetaxel i.p. 5 mg/kg days 5, 12, 19) was “reduction in tumor volume” and the “tumor volume, EG7, single agent and combination with oxaliplatin” value (EG7 cells; Compound 9 100 mg/kg orally BID, oxaliplatin i.p. 6 mg/kg days 7 and 14) was “reduction in tumor volume”. The “tumor volume, EG7, dose response” value (EG7 cells; orally BID from day one post implant, increasing doses) was “further decrease in tumor volume with increasing doses”, the IC50 (human plasma CD73) was 0.38 nM and the IC50 [1] was 0.21 nM. The “Safety Panel targets inhibited at >50%” value [2] was 1/87, the IC50 (mouse plasma CD73) was 1 nM and the EC50 (Human CD8+ T cells; 10 μM AMP, ELISA, read-out: EC50 for Granzyme B production) was 5.6 nM. It also gave an EC50 (Human CD8+ T cells; 10 μM AMP, ELISA, read-out: EC50 for IFNγ production) of 4.5 nM, an EC50 (Human CD8+ T cells; 20 μM AMP, flow cytometry, read-out: EC50 for CD8+ T cell activation (CD25 expression)) of 9.6 nM and an EC50 (Human CD8+ T cells; 20 μM AMP, flow cytometry, read-out: EC50 for CD8+ T cell proliferation) of 11.6 nM. The IC50 (human CD39) was > 10000 nM, the “tumor volume, CT26” value (CT26 cells) was “decrease in tumor volume compared to vehicle” and the IC50 (recombinant CD73) was 0.17 nM.

Source: patent US11078228B2, “Ectonucleotidase inhibitors and methods of use thereof” (Calithera Biosciences, Inc., priority 2018, dated 2021)
